Data published in patent USRE46511E1, “Fused pyrimidine derivatives for inhibition of tyrosine kinase activity” (HANMI SCIENCE CO., LTD., priority 2010, dated 2017).
Like-named read-outs stand apart in the source and are kept apart here.

Assays:
Assay type in all cases: cell-based
[1] = tested on: NCI-H1975 (EGFR L858R/T790M); test: Inhibition test for growth of cancer cell expressing EGFR (MTS), NCI-H1975; conditions: Homo sapiens, read-out: GI50 NCI-H1975 EGFR L858R/T790M
[2] = tested on: HCC827 (EGFR DelE746_A750); test: Inhibition test for growth of cancer cell expressing EGFR (SRB), HCC827; conditions: Homo sapiens, HCC827, 72 h, read-out: GI50 HCC827 EGFR DelE746_A750;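 further: cells in 96-well plates exposed to tenfold serial dilutions from 100 µM, fixed with trichloroacetic acid, SRB-stained, absorbance read at 540 nm, DMSO under 1%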
Protocol: (§1) A431 cell line was incubated in a high-glucose DMEM (Dulbecco's Modified Eagle's Medium) supplemented with 10% fetal bovine serum (FBS) and 1% penicillin/streptomycin (Gibco BRL), and HCC827 and NCI-H1975 cell lines were incubated in an RPMI medium supplemented with 10% FBS, 1% penicillin/streptomycin and 1% sodium pyruvate.
(§2) The cancer cell lines stored in a liquid nitrogen tank were each quickly thawed at 37° C., and centrifuged to remove the medium. The resulting cell pellet was mixed with a culture medium, incubated in a culture flask at 37° C. under 5% CO2 for 2 to 3 days, and the medium was removed. The remaining cells were washed with DPBS (Dulbecco's Phosphate Buffered Saline) and separated from the flask by using Tripsin-EDTA. […] 100 μl of the diluted cell solution was added to each well of a 96-well plate, and incubated at 37° C. under 5% CO2 for 1 day.
(§3) In case that the test compound was not soluble in DMSO, 1% HCl was added thereto and treated in a 40° C. water bath for 30 mins until a complete dissolution was attained. The DMSO solution containing test compound was diluted with a culture medium to a final concentration of 100 μM, and then diluted 10 times serially to 10^−6 μM (a final concentration of DMSO was less than 1%).
(§4) The medium was removed from each well of the 96-well plate. And then, 100 μl of a test compound solution was added to each well holding the cultured cells, and the plate was incubated at 37° C. under 5% CO2 for 72 hours (except that NCI-H1975 cells were incubated for 48 hours). After removing the medium from the plate, 50 μA of 10% trichloroacetic acid was added to each well, and the plate was kept at 4° C. for 1 hour to fix the cells to the bottom of the plate. The added 10% trichloroacetic acid solution was removed from each well, the plate was dried, 100 μA of an SRB (Sulforhodamine-B) dye solution at a concentration of 0.4% dissolved in 1% acetic acid was added thereto, and the resulting mixture was reacted for 10 mins at room temperature. After removing the dye solution, the plate was washed with water, and well dried. When the dye solution was not effectively removed by water, 1% acetic acid was used. 150 μA of 10 mM trisma base was added to each well, and the absorbance at 540 nm wavelength was determined with a microplate reader.

A431 (EGFR WT) = test: Inhibition test for growth of cancer cell expressing EGFR (SRB), A431; conditions: Homo sapiens, read-out: GI50 A431 EGFR WT;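 further: cells in 96-well plates exposed to tenfold serial dilutions from 100 µM down to 10^−6 µM, DMSO under 1%, SRB staining read as absorbance at 540 nm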
Protocol: as §1, §2, §3, §4

[3] = A-431, A431 cells, 72 hours, SRB

SMILES	GI50 ([1]; NCI-H1975 cells, 48 hours, MTS) [nM]	GI50 ([2]; HCC827 cells, 72 hours, SRB) [nM]	GI50 (A431 (EGFR WT); [3]) [nM]	GI50 ([1]; NCI-H1975, 48 h) [nM]	GI50 [2] [nM]	GI50 (A431 (EGFR WT); A-431, 72 h) [nM]
C=CC(=O)Nc1cccc(Oc2nc(Nc3ccc(C4CCN(C(C)C)CC4)cc3)nc3ccsc23)c1 [Example 54]	< 50	< 50	> 1000	–	–	–
C=CC(=O)Nc1cccc(Oc2nc(Nc3ccc(OCCN4CCOCC4)cc3)nc3ccsc23)c1 [Example 65]	< 50	< 50	> 1000	–	–	–
C=CC(=O)Nc1cccc(Oc2nc(Nc3ccc(S(=O)(=O)N4CCN(CC)CC4)cc3)nc3ccsc23)c1 [Example 76]	50 to 100	< 50	> 1000	–	–	–
C=CC(=O)Nc1cccc(Oc2nc(Nc3ccc(C(=O)NCCN4CCCC4)cc3)nc3ccsc23)c1 [Example 80]	< 50	< 50	> 1000	–	–	–
C=CC(=O)Nc1cccc(Oc2nc(Nc3ccc(C(=O)N4CCN(CC)CC4)cc3)nc3ccsc23)c1 [Example 90]	< 50	< 50	> 1000	–	–	–
C=CC(=O)Nc1cccc(Oc2nc(Nc3ccc(C[S+](C)[O-])cc3)nc3ccsc23)c1 (stereo not drawn) [Example 94]	< 50	< 50	> 1000	–	–	–
C=CC(=O)Nc1cccc(Oc2nc(Nc3ccc(CCN4CCN(S(=O)(=O)C=C)CC4)cc3)nc3ccsc23)c1 [Example 100]	< 50	< 50	> 1000	–	–	–
C=CC(=O)Nc1cccc(Oc2nc(Nc3ccc4c(c3)NCCOC4)nc3ccsc23)c1 [Example 107]	< 50	< 50	> 1000	–	–	–
C=CC(=O)Nc1cccc(Oc2nc(Nc3ccc4c(c3)CCN4C(=O)CN(C)C)nc3ccsc23)c1 [Example 109]	< 50	< 50	> 1000	–	–	–
C=CC(=O)Nc1cccc(Oc2nc(Nc3ccc(C4CCCN(C)C4)c(F)c3)nc3ccsc23)c1 (stereo not drawn) [Example 128]	< 50	< 50	> 1000	–	–	–
C=CC(=O)Nc1cccc(Oc2nc(Nc3ccc(N4CCNCC4)c(Cl)c3)nc3ccsc23)c1 [Example 159]	< 50	< 50	> 1000	–	–	–
C=CC(=O)Nc1cccc(Oc2nc(Nc3ccc(CN4CCCC4)cc3)nc3ccsc23)c1 [Example 176]	< 50	< 50	> 1000	–	–	–
C=CC(=O)Nc1cccc(Oc2nc(Nc3ccc(CN4CCCCC4)cc3)nc3ccsc23)c1 [Example 178]	< 50	< 50	> 1000	–	–	–
C=CC(=O)Nc1cccc(Oc2nc(Nc3ccc(C(C)N4CCN(CC)CC4)cc3)nc3ccsc23)c1 (stereo not drawn) [Example 184]	< 50	< 50	> 1000	–	–	–
C=CC(=O)Nc1cccc(Oc2nc(Nc3ccc(CN4CCN(CC5CC5)CC4)cc3)nc3ccsc23)c1 [Example 185]	< 50	< 50	> 1000	–	–	–
C=CC(=O)Nc1cccc(Oc2nc(Nc3ccc(CN4CCN(C5CCN(C)CC5)CC4)cc3)nc3ccsc23)c1 [Example 186]	< 50	< 50	> 1000	–	–	–

SMILES	GI50 ([1]; NCI-H1975 cells, 48 hours, MTS) [nM]	GI50 ([2]; HCC827 cells, 72 hours, SRB) [nM]	GI50 (A431 (EGFR WT); [3]) [nM]	GI50 ([1]; NCI-H1975, 48 h) [nM]	GI50 [2] [nM]	GI50 (A431 (EGFR WT); A-431, 72 h) [nM]
C=CC(=O)Nc1cccc(Oc2nc(Nc3ccc(CP(=O)(OC)OC)cc3)nc3ccsc23)c1 [Example 189]	–	–	–	< 50	< 50	> 1000
C=CC(=O)Nc1cccc(Nc2nc(Nc3ccc(C4CCN(C)CC4)cc3)nc3ccsc23)c1 [Example 209]	< 50	< 50	–	–	–	–
C=CC(=O)Nc1cccc(Nc2nc(Nc3ccc(C4CCCN(C)C4)cc3)nc3ccsc23)c1 (stereo not drawn) [Example 210]	< 50	< 50	–	–	–	–
C=CC(=O)Nc1cccc(Nc2nc(Nc3ccc(OCCN(C)C)cc3)nc3ccsc23)c1 [Example 211]	< 50	< 50	–	–	–	–
C=CC(=O)Nc1cccc(Nc2nc(Nc3ccc(OCCCN(C)C)cc3)nc3ccsc23)c1 [Example 212]	50 to 100	50 to 100	–	–	–	–
C=CC(=O)Nc1cccc(Nc2nc(Nc3ccc(CCN(C)C)cc3)nc3ccsc23)c1 [Example 213]	< 50	50 to 100	–	–	–	–
C=CC(=O)Nc1cccc(Nc2nc(Nc3ccc(CCN4CCN(C)CC4)cc3)nc3ccsc23)c1 [Example 214]	< 50	50 to 100	–	–	–	–
C=CC(=O)Nc1cccc(Nc2nc(Nc3ccc(C4CCN(C)CC4)c(F)c3)nc3ccsc23)c1 [Example 216]	< 50	< 50	–	–	–	–
C=CC(=O)Nc1cccc(Nc2nc(Nc3ccc(NC4CCN(C)CC4)c(F)c3)nc3ccsc23)c1 [Example 217]	50 to 100	< 50	–	–	–	–
C=CC(=O)Nc1ccc(F)c(Nc2nc(Nc3ccc(N4CCN(C)CC4)cc3)nc3ccsc23)c1 [Example 218, N-(4-fluoro-3-(2-(4-(4-methyl-piperazin-1-yl)-phenylamino)-thieno[3,2-d]pyrimidin-4-ylamino)-phenyl)-acrylamide]	50 to 100	< 50	> 1000	–	–	–
C=CC(=O)Nc1cccc(Nc2nc(Nc3ccc(CN4CCCCC4)cc3)nc3ccsc23)c1 [Example 221]	< 50	< 50	–	–	–	–
C=CC(=O)Nc1cccc(Sc2nc(Nc3ccc(N4CCOCC4)c(F)c3)nc3ccsc23)c1 [Example 224]	< 50	< 50	–	–	–	–
C=CC(=O)Nc1cccc(Sc2nc(Nc3ccc(C4CCN(C)CC4)c(F)c3)nc3ccsc23)c1 [Example 225]	< 50	< 50	–	–	–	–
C=CC(=O)Nc1cccc(Oc2nc(Nc3ccc(N4CCN(C)CC4)c(OC)c3)nc3ccoc23)c1 [Example 234]	< 50	< 50	> 1000	–	–	–
C=CC(=O)Nc1cccc(Oc2nc(Nc3ccc(C4CCN(C)CC4)c(F)c3)nc3ccoc23)c1 [Example 235]	< 50	< 50	–	–	–	–
CS(=O)(=O)CCNCc1ccc(-c2ccc3ncnc(Nc4ccc(OCc5cccc(F)c5)c(Cl)c4)c3c2)o1 [Lapatinib, lapatinib, reference compound]	–	–	–	> 1000	100 to 1000	50 to 100

Second part, led by results:

GI50 ([1]; NCI-H1975 cells, 48 hours, MTS) [nM]	GI50 ([2]; HCC827 cells, 72 hours, SRB) [nM]	GI50 (A431 (EGFR WT); [3]) [nM]	SMILES	GI50 ([1]; NCI-H1975, 48 h) [nM]	GI50 [2] [nM]	GI50 (A431 (EGFR WT); A-431, 72 h) [nM]
50 to 100	50 to 100	> 1000	C=CC(=O)Nc1cccc(Oc2nc(Nc3ccc(N4CCN(C)CC4)cc3F)nc3ccsc23)c1 [Example 4]	–	–	–
< 50	< 50	> 1000	C=CC(=O)Nc1cccc(Oc2nc(Nc3ccc(N4CCN(C)CC4)c(C)c3)nc3ccsc23)c1 [Example 8]	–	–	–
< 50	< 50	100 to 1000	C=CC(=O)Nc1cccc(Oc2nc(Nc3ccc(N4CCN(CC)CC4)cc3)nc3ccsc23)c1 [Example 10]	–	–	–
< 50	< 50	100 to 1000	C=CC(=O)Nc1cccc(Oc2nc(Nc3ccc(N4CCN(C5CCCCC5)CC4)cc3)nc3ccsc23)c1 [Example 13]	–	–	–
< 50	50 to 100	> 1000	C=CC(=O)Nc1cccc(Oc2nc(Nc3ccc(N4CCN(S(C)(=O)=O)CC4)cc3)nc3ccsc23)c1 [Example 23]	–	–	–
50 to 100	< 50	> 1000	C=CC(=O)Nc1cccc(Oc2nc(Nc3ccc(N4CCN(S(=O)(=O)CC)CC4)cc3)nc3ccsc23)c1 [Example 24]	–	–	–
< 50	< 50	> 1000	C=CC(=O)Nc1cccc(Oc2nc(Nc3ccc(N4CCN(C5CCN(C)CC5)CC4)cc3)nc3ccsc23)c1 [Example 26]	–	–	–
< 50	100 to 1000	> 1000	C=CC(=O)Nc1cccc(Oc2nc(Nc3ccc(N4CCSCC4)cc3)nc3ccsc23)c1 [Example 30]	–	–	–
< 50	< 50	> 1000	C=CC(=O)Nc1cccc(Oc2nc(Nc3ccc(N4CC[S+]([O-])CC4)cc3)nc3ccsc23)c1 [Example 31]	–	–	–
< 50	< 50	> 1000	C=CC(=O)Nc1cccc(Oc2nc(Nc3ccc(N4CCS(=O)(=O)CC4)cc3)nc3ccsc23)c1 [Example 32]	–	–	–
< 50	100 to 1000	> 1000	C=CC(=O)Nc1cccc(Oc2nc(Nc3ccc(N4CCCCC4)cc3)nc3ccsc23)c1 [Example 37]	–	–	–
< 50	< 50	> 1000	C=CC(=O)Nc1cccc(Oc2nc(Nc3ccc(C4CCN(C)CC4)cc3)nc3ccsc23)c1 [Example 52]	–	–	–
< 50	< 50	> 1000	C=CC(=O)Nc1cccc(Oc2nc(Nc3ccc(N4CCN(CC)CC4)cc3OC)nc3ccsc23)c1 [Example 112]	–	–	–
< 50	< 50	> 1000	C=CC(=O)Nc1cccc(Oc2nc(Nc3ccc(N4CCN(S(C)(=O)=O)CC4)c(F)c3)nc3ccsc23)c1 [Example 120]	–	–	–
100 to 1000	< 50	> 1000	C=CC(=O)Nc1cccc(Oc2nc(Nc3ccc(N4CCNCC4)cc3)nc3ccsc23)c1 [Example 158, N-(3-(2-(4-(piperazin-1-yl)phenylamino)-thieno[3,2-d]pyrimidine-4-yloxy)-phenyl)-acrylamide]	–	–	–
< 50	< 50	> 1000	C=CC(=O)Nc1ccc(F)c(Oc2nc(Nc3ccc(N4CCN(C)CC4)cc3)nc3ccsc23)c1 [Example 165]	–	–	–
< 50	< 50	> 1000	C=CC(=O)Nc1cccc(Oc2nc(Nc3ccc(N4CCN(C)CC4)cn3)nc3ccsc23)c1 [Example 167, N-(3-(2-(5-(4-methylpiperazin-1-yl)piridin-2-ylamino)thieno[3,2-d]pyrimidin-4-yloxy)phenyl)acrylamide]	–	–	–
< 50	< 50	> 1000	C=CC(=O)Nc1cccc(Oc2nc(Nc3ccc(N4CCN(CC)CC4)cn3)nc3ccsc23)c1 [Example 168]	–	–	–
